The subject of assay [1] is CD8+ T cells. As to the kind of experiment: In vitro immunogenicity: T-cell priming with aAPCs loaded with peptide/MHC and anti-CD28, pMHC multimer readout. The format is cell-based, human. Conditions: in vitro immunogenicity of HLA class I peptides; for Wells: CD8+ T cells of healthy donors, three stimulation cycles, multimer staining; for Wells positive [%]: pMHC multimer readout after T-cell priming. The source says:
In order to obtain information regarding the immunogenicity of the TUMAPs of the present invention, the inventors performed investigations using an in vitro T-cell priming assay based on repeated stimulations of CD8+ T cells with artificial antigen presenting cells (aAPCs) loaded with peptide/MHC complexes and anti-CD28 antibody.
In order to perform in vitro stimulations by artificial antigen presenting cells loaded with peptide-MHC complex (pMHC) and anti-CD28 antibody, the inventors first isolated CD8+ T cells from fresh HLA-A*02 leukapheresis products via positive selection using CD8 microbeads (Miltenyi Biotec, Bergisch-Gladbach, Germany) of healthy donors obtained from the University clinics Mannheim, Germany, after informed consent.
PBMCs and isolated CD8+ lymphocytes were incubated in T-cell medium (TCM) until use consisting of RPMI-Glutamax (Invitrogen, Karlsruhe, Germany) supplemented with 10% heat inactivated human AB serum (PAN-Biotech, Aidenbach, Germany), 100 U/ml Penicillin/100 μg/ml Streptomycin (Cambrex, Cologne, Germany), 1 mM sodium pyruvate (CC Pro, Oberdorla, Germany), 20 μg/ml Gentamycin (Cambrex). 2.5 ng/ml IL7 (PromoCell, Heidelberg, Germany) and 10 U/ml IL-2 (Novartis Pharma, Nürnberg, Germany) were also added to the TCM at this step.
Generation of pMHC/anti-CD28 coated beads, T-cell stimulations and readout was performed in a highly defined in vitro system using four different pMHC molecules per stimulation condition and 8 different pMHC molecules per readout condition.
The purified co-stimulatory mouse IgG2a anti human CD28 Ab 9.3 (Jung et al., 1987) was chemically biotinylated using Sulfo-N-hydroxysuccinimidobiotin as recommended by the manufacturer (Perbio, Bonn, Germany). Beads used were 5.6 μm diameter streptavidin coated polystyrene particles (Bangs Laboratories, Illinois, USA).
pMHC used for positive and negative control stimulations were A*0201/MLA-001 (peptide […] (SEQ ID NO. 303) from modified Melan-A/MART-1) and A*0201/DDX5-001 ([…] from DDX5, SEQ ID NO. 304), respectively.
800.000 beads/200 μl were coated in 96-well plates in the presence of 4×12.5 ng different biotin-pMHC, washed and 600 ng biotin anti-CD28 were added subsequently in a volume of 200 μl. Stimulations were initiated in 96-well plates by co-incubating […] CD8+ T cells with 2×10^5 washed coated beads in 200 μl TCM supplemented with 5 ng/ml IL-12 (PromoCell) for 3 days at 37° C. Half of the medium was then exchanged by fresh TCM supplemented with 80 U/ml IL-2 and incubating was continued for 4 days at 37° C. This stimulation cycle was performed for a total of three times. For the pMHC multimer readout using 8 different pMHC molecules per condition, a two-dimensional combinatorial coding approach was used as previously described (Andersen et al., 2012) with minor modifications encompassing coupling to 5 different fluorochromes. Finally, multimeric analyses were performed by staining the cells with Live/dead near IR dye (Invitrogen, Karlsruhe, Germany), CD8-FITC antibody clone SK1 (BD, Heidelberg, Germany) and fluorescent pMHC multimers. For analysis, a BD LSRII SORP cytometer equipped with appropriate lasers and filters was used. Peptide specific cells were calculated as percentage of total CD8+ cells. Evaluation of multimeric analysis was done using the FlowJo software (Tree Star, Oregon, USA). In vitro priming of specific multimer+ CD8+ lymphocytes was detected by comparing to negative control stimulations.

Assay [2] relates to HLA-A*24. As to the kind of experiment: MHC binding assay, UV-ligand exchange with β2m ELISA, HLA-A*24. Conditions: binding to HLA-A*24 ranged by peptide exchange yield. Details: species or system human. The source says: Candidate peptides for T cell based therapies according to the present invention were further tested for their MHC binding capacity (affinity). The individual peptide-MHC complexes were produced by UV-ligand exchange, where a UV-sensitive peptide is cleaved upon UV-irradiation, and exchanged with the peptide of interest as analyzed. Only peptide candidates that can effectively bind and stabilize the peptide-receptive MHC molecules prevent dissociation of the MHC complexes. To determine the yield of the exchange reaction, an ELISA was performed based on the detection of the light chain (β2m) of stabilized MHC complexes. The assay was performed as generally described in Rodenko et al. (Rodenko et al., 2006).
96 well MAXISorp plates (NUNC) were coated over night with 2 ug/ml streptavidin in PBS at room temperature, washed 4× and blocked for 1 h at 37° C. in 2% BSA containing blocking buffer. Refolded HLA-A*02:01/MLA-001 monomers served as standards, covering the range of 15-500 ng/ml. Peptide-MHC monomers of the UV-exchange reaction were diluted 100 fold in blocking buffer. Samples were incubated for 1 h at 37° C., washed four times, incubated with 2 ug/ml HRP conjugated anti-β2m for 1 h at 37° C., washed again and detected with TMB solution that is stopped with […]. Absorption was measured at 450 nm. Candidate peptides that show a high exchange yield (preferably higher than 50%, most preferred higher than 75%) are generally preferred for a generation and production of antibodies or fragments thereof, and/or T cell receptors or fragments thereof, as they show sufficient avidity to the MHC molecules and prevent dissociation of the MHC complexes.

For “296 (TYVDSSHTI; listed as Homo sapiens) [compound 296]”, the Wells result in assay [1] is “+ (<20% = +)”. Regarding “196 (LYIDRPLPYL; listed as Homo sapiens) [compound 196]”, in assay [1], the “Wells positive [%]” value is listed as “++++ (> = 70% = ++++)”. Consider “186 (IFPQFLYQF; listed as Homo sapiens) [compound 186]”, for which the Peptide exchange entry in assay [2] is “++++ (> = 75% = ++++)”. The same measure, in the same setting: then “195 (TYSVSFPMF; listed as Homo sapiens) [compound 195]”, with “++++ (> = 75% = ++++)”.

In the case of “300 (AYVLRLETL; listed as Homo sapiens) [compound 300]”, in assay [1], the Wells entry was “+ (<20% = +)”. Turning to “268 (QYLGQIQHI; listed as Homo sapiens) [compound 268]”, the “Wells positive [%]” value in assay [1] is listed as “+ (<20% = +)”. Still for that read-out and setting: with “149 (ILNTHITEL; listed as Homo sapiens) [compound 149]” the entry was “+ (<20% = +)”. As for “228 (KYTSWYVAL; listed as Homo sapiens) [compound 228]”, in assay [2], the Peptide exchange entry is “++++ (> = 75% = ++++)”. Still for that read-out and setting: with “202 (VYWDSAGAAHF; listed as Homo sapiens) [compound 202]” the entry was “++++ (> = 75% = ++++)”. For “269 (YFIDSTNLKTHF; listed as Homo sapiens) [compound 269]”, in assay [1], the “Wells positive [%]” value is “+ (<20% = +)”. For the substance “227 (IFLDYEAGTLSF; listed as Homo sapiens) [compound 227]”, the Peptide exchange result in assay [2] is recorded as “++++ (> = 75% = ++++)”. Take “175 (YYEVHKELF; listed as Homo sapiens) [compound 175]”: in assay [2], the Peptide exchange entry was “++++ (> = 75% = ++++)”. Regarding “168 (KYQDILETI; listed as Homo sapiens) [compound 168]”, the Peptide exchange entry in assay [2] was “++++ (> = 75% = ++++)”.

For the substance “277 (VYQGHTALL; listed as Homo sapiens) [compound 277]”, the Peptide exchange result in assay [2] is “++++ (> = 75% = ++++)”.

In the case of “5 (GIVAHIQEV; listed as Homo sapiens) [compound 5]”, in assay [1], the “Wells positive [%]” value is reported as “+ (<20% = +)”. Take “26 (ALQEELTEL; listed as Homo sapiens) [compound 26]”: the “Wells positive [%]” value in assay [1] is “+ (<20% = +)”. On to “289 (KYPVEWAKF; listed as Homo sapiens) [compound 289]”, for which, in assay [2], the Peptide exchange result is “++++ (> = 75% = ++++)”.

On to “291 (KLDETGNSL; listed as Homo sapiens) [compound 291]”, for which, in assay [1], the Wells result is listed as “+ (<20% = +)”. In the case of “210 (IYTMIYRNL; listed as Homo sapiens) [compound 210]”, the Peptide exchange entry in assay [2] is listed as “++++ (> = 75% = ++++)”.

Take “187 (TYLRDQHFL; listed as Homo sapiens) [compound 187]”: in assay [2], the Peptide exchange result is listed as “++++ (> = 75% = ++++)”. Same read-out and setting: then “267 (KYMVYPQTF; listed as Homo sapiens) [compound 267]”, with “++++ (> = 75% = ++++)”. “293 (FLVDGSWSI; listed as Homo sapiens) [compound 293]”: in assay [1], the Wells entry is “+ (<20% = +)”. Consider “192 (SYALLTYMI; listed as Homo sapiens) [compound 192]”, for which the Peptide exchange result in assay [2] is listed as “++++ (> = 75% = ++++)”.

Turning to “216 (QYSSVFKSL; listed as Homo sapiens) [compound 216]”, the Peptide exchange entry in assay [2] is on record as “++++ (> = 75% = ++++)”. Take “274 (AYLHSHALI; listed as Homo sapiens) [compound 274]”: the Peptide exchange result in assay [2] was “++++ (> = 75% = ++++)”. “278 (RYISDQLFTNF; listed as Homo sapiens) [compound 278]”: the Peptide exchange entry in assay [2] was “++++ (> = 75% = ++++)”. Turning to “211 (YYLEVGKTLI; listed as Homo sapiens) [compound 211]”, the Peptide exchange entry in assay [2] is on record as “++++ (> = 75% = ++++)”. As for “29 (YLLDPSITL; listed as Homo sapiens) [compound 29]”, the “Wells positive [%]” value in assay [1] is recorded as “+ (<20% = +)”. Turning to “193 (RFHPTPLLL; listed as Homo sapiens) [compound 193]”, the Peptide exchange entry in assay [2] is on record as “++++ (> = 75% = ++++)”.

For “285 (HYPPVQVLF; listed as Homo sapiens) [compound 285]”, the “Wells positive [%]” value in assay [1] was “+ (<20% = +)”. “301 (AYKPGALTF; listed as Homo sapiens) [compound 301]”: the Wells result in assay [1] is reported as “+ (<20% = +)”. Regarding “230 (KLQNIMMLL; listed as Homo sapiens) [compound 230]”, the “Wells positive [%]” value in assay [1] is on record as “++++ (> = 70% = ++++)”.

As to “282 (KFVDSTFYL; listed as Homo sapiens) [compound 282]”, the Peptide exchange result in assay [2] is listed as “++++ (> = 75% = ++++)”. Same read-out and setting: then “272 (QYLQDAYSF; listed as Homo sapiens) [compound 272]”, with “++++ (> = 75% = ++++)”. Turning to “181 (LYLDIINLF; listed as Homo sapiens) [compound 181]”, the Peptide exchange result in assay [2] is on record as “++++ (> = 75% = ++++)”. “271 (LYHDIFSRL; listed as Homo sapiens) [compound 271]”: the Peptide exchange result in assay [2] is on record as “++++ (> = 75% = ++++)”. Still for that read-out and setting: with “177 (VYPWLGALL; listed as Homo sapiens) [compound 177]” the entry was “++++ (> = 75% = ++++)”; with “179 (MYDSYWRQF; listed as Homo sapiens) [compound 179]”, “++++ (> = 75% = ++++)”; with “184 (VFQNFPLLF; listed as Homo sapiens) [compound 184]”, “++++ (> = 75% = ++++)”.

For the substance “217 (FFPPTRQMGLLF; listed as Homo sapiens) [compound 217]”, in assay [2], the Peptide exchange entry is recorded as “++++ (> = 75% = ++++)”. On the same count and under the same terms, with “166 (YYVESGKLF; listed as Homo sapiens) [compound 166]” the entry was “++++ (> = 75% = ++++)”.

Take “173 (IYSWILDHF; listed as Homo sapiens) [compound 173]”: the Peptide exchange result in assay [2] is reported as “++++ (> = 75% = ++++)”. The same measure, in the same setting: with “161 (IYLVSIPEL; listed as Homo sapiens) [compound 161]” the entry was “++++ (> = 75% = ++++)”; with “160 (VYTLDIPVL; listed as Homo sapiens) [compound 160]”, “++++ (> = 75% = ++++)”; with “194 (EFGSLHLEFL; listed as Homo sapiens) [compound 194]”, “+ (<20% = +)”.

For the substance “276 (VYGFQWRHF; listed as Homo sapiens) [compound 276]”, the Peptide exchange result in assay [2] was “++++ (> = 75% = ++++)”. As for “280 (RYPDNLKHLYL; listed as Homo sapiens) [compound 280]”, the Peptide exchange result in assay [2] is “++++ (> = 75% = ++++)”. On the same count and under the same terms, with “172 (TYTTVPRVAF; listed as Homo sapiens) [compound 172]” the entry was “++++ (> = 75% = ++++)”.

Values taken from patent US10098938B2, “Peptides and combination of peptides for use in immunotherapy against various cancers” (immatics biotechnologies GmbH, priority 2015, dated 2018).
